Here are results for 3 molecules from patent publication US7579475B2, “S-(-)-amlodipine nicotinate and process for the preparation thereof” (Hanlim Pharmaceutical Co., Ltd., priority 2002, dated 2009).

The structures appear in SMILES notation.

Data set [1] can be described thus: Photostability test (incandescent lamp, 3 weeks). The method, then:
1.0 g of S-(−)-amlodipine besylate prepared, using S-(−)-amlodipine, in accordance with U.S. Pat. No. 4,879,303 and 1.0 g of S-(−)-amlodipine nicotinate dihydrate obtained in Example 1, which were placed in glass schales (100×20 mm), were exposed at 25-30° C. for 3 weeks under an incandescent lamp (220V, 100 W) that was placed at 30 cm above the samples.

Data set [2] relates to spontaneously hypertensive rats (SHRs). Briefly: In vivo anti-hypertensive activity in spontaneously hypertensive rats (tail-cuff systolic blood pressure). The following applies: SHR; for ED20 (amount necessary for 20% decrease in the blood pressure) / Intensity (reverse ratio of ED20 values relative to amlodipine nicotinate) / Maximal anti-hypertensive effect (change of systolic blood pressure) / Intensity (maximal effect of S-(−)-amlodipine nicotinate to maximal effect of amlodipine nicotinate): oral; for Maximal anti-hypertensive effect (change of systolic blood pressure): mean % ± S.E.M.; for Effect on blood pressure (in words): oral, 1, 3 and 10 mg/kg. Details: species or system rat. The method, then:
Male SHRs (Charles Rever Co., Japan) aged 13-14 weeks were used.
The SHRs having a systolic blood pressure over 170 mmHg were divided into 7 groups, i.e., Test Groups 1 to 3 (for amlodipine nicotinate), Test Groups 4 to 6 (for S-(−)-amlodipine nicotinate) and a Control Group. Each Test Group and Control Group consisted of 6-8 SHRs (n=6-8).
The test compounds were dissolved in distilled water to prepare test solutions immediately prior to administration. The test solutions of amlodipine nicotinate and S-(−)-amlodipine nicotinate were prepared by dissolving 1, 3, and 10 mg/kg in distilled water (0.5 ml/100 g rat), respectively, and then administered orally to each Test Group. The vehicle (distilled water) was administered to Control Group.
The systolic blood pressure was measured with Multichannel 8000 (TSE Co., Germany), using a tail-cuff method. That is, the systolic blood pressures of a tail artery of each rat were measured before the administration of the test solutions and after 2, 4, 6, 8, 10, and 24 hours from the administration thereof. In order to facilitate the measurement of blood pressures, the test animals of each Group underwent warming at 37° C. for about 10 minutes before the measurements.
Statistical analysis of the test results were conducted by an unpaired t-test and ANOVA (one-way analysis of variance) with Sigma Stat program (Jandel Co., USA). The secondary evaluations were conducted by a Dunnett's multiple comparison test.

[3] abbreviates: listed as S-(−)-Amlodipine nicotinate, dihydrate.

As to `CCOC(=O)C1=C(COCCN)NC(C)=C(C(=O)OC)[C@@H]1c1ccccc1Cl.O=S(=O)(O)c1ccccc1` [S-(−)-amlodipine besylate], the “Water contents absorbed during the photostability test” value in data set [1] (25-30° C., 3 weeks under incandescent lamp) is reported as 1.5-2.5.
`CCOC(=O)C1=C(COCCN)NC(C)=C(C(=O)OC)[C@@H]1c1ccccc1Cl.O=C(O)c1cccnc1` [amlodipine nicotinate]: the “ED20 (amount necessary for 20% decrease in the blood pressure)” value in data set [2] and in data set [2] (listed as Amlodipine nicotinate) was 2.19 ± 0.57 mg/kg in each case. For the same molecule, in data set [2], the “Intensity (reverse ratio of ED20 values relative to amlodipine nicotinate)” value is recorded as 1.00. In addition, the entries for the “Maximal anti-hypertensive effect (change of systolic blood pressure)” value in data set [2] (1 mg/kg), in data set [2] (3 mg/kg) and in data set [2] (10 mg/kg) were −10.20 ± 2.71%, −26.8 ± 3.22% and −40.9 ± 2.08%, respectively. Besides, in data set [2], the “Effect on blood pressure (in words)” value was “dose-dependently reduced blood pressures”.
As to `CCOC(=O)C1=C(COCCN)NC(C)=C(C(=O)OC)C1c1ccccc1Cl` (stereo not drawn) [S-(−)-amlodipine nicotinate, S-(−)-amlodipine nicotinate dihydrate], the “Maximal anti-hypertensive effect (change of systolic blood pressure)” value in data set [2] (1 mg/kg) is reported as −12.4 ± 1.73%. In data set [2] (3 mg/kg), the “Intensity (maximal effect of S-(−)-amlodipine nicotinate to maximal effect of amlodipine nicotinate)” value was 1.06 and the “Maximal anti-hypertensive effect (change of systolic blood pressure)” value was −28.3 ± 3.31%. In addition, in data set [2] (10 mg/kg), the “Intensity (maximal effect of S-(−)-amlodipine nicotinate to maximal effect of amlodipine nicotinate)” value was 1.07 and the “Maximal anti-hypertensive effect (change of systolic blood pressure)” value is reported as −43.6 ± 1.65%. The “Effect on blood pressure (in words)” value in data set [2] is recorded as “dose-dependently reduced blood pressures”. Also, in data set [2] (dihydrate), the “ED20 (amount necessary for 20% decrease in the blood pressure)” value is 1.91 ± 0.49 mg/kg and the “Intensity (reverse ratio of ED20 values relative to amlodipine nicotinate)” value was “about 1.15”. In data set [2] (setting [3]), the “ED20 (amount necessary for 20% decrease in the blood pressure)” value was 1.91 ± 0.49 mg/kg and the “Intensity (reverse ratio of ED20 values relative to amlodipine nicotinate)” value amounted to 1.15. Also, in data set [1], the “Difference in 1H-NMR before and after photostability test” value is “no significant difference”; the “Photostability (overall conclusion)” value is “improved photostability”.
